Test results published in patent US12459951B2, “Compounds that interact with RAS superfamily proteins for treatment of cancers, inflammatory diseases, rasopathies, and fibrotic disease” (SHY Therapeutics, LLC, priority 2022, dated 2025).

Tests used:
Erk1/2 phosphorylation = experiment: Erk1/2 Phosphorylation Assay (western blot), Panc-1; type: cell-based, human; details: at 10 μM, * = activation
Outline: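 Phospho-Erk1/2 (Thr202/Tyr204) was detected by western blot in lysates of Panc-1 cells (KRas G12D). These had 6 h, 37° C exposure to 10 μM compound or a dilution series for IC50, in 0.3% DMSO. Cells were either starved overnight in 0.5% FBS with a 15-min 1.5 ng/ml EGF pulse, or kept unstimulated in 10% FBS.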

[1] = tested on: Smad2/Smad3 phosphorylation; experiment: Phospho-Smad2/3 Inhibition Assay (western blot), Panc-1; type: cell-based, human; details: at 10 μM, Panc-1 pancreatic cancer cell line; starred symbols = activation
Outline: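 Western blotting of lysates (15-50 μg protein) read phosphorylation of Smad2 Ser465/467 and Smad3 Ser423/425. Before lysis, Panc-1 cells got 1 h of 10 ng/ml TGF-b1 following 3 h compound exposure at 37° C (10 μM final, or serial dilutions for IC50, 0.3% DMSO) after overnight 0.5% FBS starvation.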

Structure (SMILES) | % inh of Erk1/2 phosphorylation in Panc-1 (Erk1/2 phosphorylation) | % inh of Smad2/3 phosphorylation in Panc-1 [1]
Cc1c(-c2ccn(C(C)C)n2)cn2nc(-c3nccn3C)nc(Nc3cc(C4CC4)no3)c12 [Compound 69, 3-Cyclopropyl-N-(6-(1-isopropyl-1H-pyrazol-3-yl)-5-methyl-2-(1-methyl-1H-imidazol-2-yl)pyrrolo[2,1-f][1,2,4]triazin-4-yl)isoxazol-5-amine] | D* (85-100% activation) | A (A = 1-25% inhibition)
Cc1c(-c2ccn(C(C)C)n2)cn2nc(-c3nccn3C)nc(Nc3nc(C4CC4)no3)c12 [Compound 70, 3-Cyclopropyl-N-(6-(1-isopropyl-1H-pyrazol-3-yl)-5-methyl-2-(1-methyl-1H-imidazol-2-yl)pyrrolo[2,1-f][1,2,4]triazin-4-yl)-1,2,4-oxadiazol-5-amine] | B* (26-49% activation) | 0 (0 = 0% inhibition)
COc1ccc(Nc2nc(-c3nccn3C)nn3cc(-c4ccn(C(C)C)n4)c(C)c23)cn1 [Compound 71, 6-(1-Isopropyl-1H-pyrazol-3-yl)-N-(6-methoxypyridin-3-yl)-5-methyl-2-(1-methyl-1H-imidazol-2-yl)pyrrolo[2,1-f][1,2,4]triazin-4-amine] | D* (85-100% activation) | 0 (0 = 0% inhibition)
Cc1c(-c2ccn(C(C)C)n2)cn2nc(-c3nccn3C)nc(Nc3ccn(C(C)C)n3)c12 [Compound 72, N,6-bis(1-Isopropyl-1H-pyrazol-3-yl)-5-methyl-2-(1-methyl-1H-imidazol-2-yl)pyrrolo[2,1-f][1,2,4]triazin-4-amine] | D* (85-100% activation) | 0 (0 = 0% inhibition)
COc1cncnc1Nc1nc(-c2nccn2C)nn2cc(-c3ccn(C(C)C)n3)c(C)c12 [Compound 73, 6-(1-Isopropyl-1H-pyrazol-3-yl)-N-(5-methoxypyrimidin-4-yl)-5-methyl-2-(1-methyl-1H-imidazol-2-yl)pyrrolo[2,1-f][1,2,4]triazin-4-amine] | D* (85-100% activation) | B* (B* = 26-45% activation)
COc1ccc(Nc2nc(-c3nccn3C)nn3cc(-c4ccn(C(C)C)n4)c(C)c23)nn1 [Compound 74, 6-(1-Isopropyl-1H-pyrazol-3-yl)-N-(6-methoxypyridazin-3-yl)-5-methyl-2-(1-methyl-1H-imidazol-2-yl)pyrrolo[2,1-f][1,2,4]triazin-4-amine] | D* (85-100% activation) | A* (A* = 1-25% activation)
COc1cc(Nc2nc(-c3nccn3C)nn3cc(-c4ccn(C)n4)c(C)c23)ncc1-n1cnc(C)c1 [Compound 244, N-(4-Methoxy-5-(4-methyl-1H-imidazol-1-yl)pyridin-2-yl)-5-methyl-2-(1-methyl-1H-imidazol-2-yl)-6-(1-methyl-1H-pyrazol-3-yl)pyrrolo[2,1-f][1,2,4]triazin-4-amine] | 0 (0% inhibition) | A* (A* = 1-25% activation)
Cc1c(-c2ccn(C)n2)cn2nc(-c3nccn3C)nc(Nc3cc(-n4ccnc4)ccn3)c12 [Compound 245, N-(4-(1H-imidazol-1-yl)pyridin-2-yl)-5-methyl-2-(1-methyl-1H-imidazol-2-yl)-6-(1-methyl-1H-pyrazol-3-yl)pyrrolo[2,1-f][1,2,4]triazin-4-amine] | 0 (0% inhibition) | B* (B* = 26-45% activation)
Cc1c(-c2ccn(C)n2)cn2nc(-c3nccn3C)nc(Nc3cc(-n4ccnc4C)ccn3)c12 [Compound 246, 5-Methyl-N-(4-(2-methyl-1H-imidazol-1-yl)pyridin-2-yl)-2-(1-methyl-1H-imidazol-2-yl)-6-(1-methyl-1H-pyrazol-3-yl)pyrrolo[2,1-f][1,2,4]triazin-4-amine] | 0 (0% inhibition) | C* (C* = 46-75% activation)
Cc1c(-c2ccn(C)n2)cn2nc(-c3nccn3C)nc(Nc3ccc(N4CCOCC4)cn3)c12 [Compound 247, 5-Methyl-2-(1-methyl-1H-imidazol-2-yl)-6-(1-methyl-1H-pyrazol-3-yl)-N-(5-morpholinopyridin-2-yl)pyrrolo[2,1-f][1,2,4]triazin-4-amine] | D* (85-100% activation) | C* (C* = 46-75% activation)
Cc1c(-c2ccn(C)n2)cn2nc(-c3nccn3C)nc(Nc3cc(-c4ccccn4)ccn3)c12 [Compound 248, N-([2,4′-Bipyridin]-2′-yl)-5-methyl-2-(1-methyl-1H-imidazol-2-yl)-6-(1-methyl-1H-pyrazol-3-yl)pyrrolo[2,1-f][1,2,4]triazin-4-amine] | C* (46-84% activation) | D* (D* = 76-100% activation)
Cc1c(-c2ccn(C)n2)cn2nc(-c3nccn3C)nc(Nc3ccc(-c4ccccn4)cn3)c12 [Compound 249, N-([2,3′-Bipyridin]-6′-yl)-5-methyl-2-(1-methyl-1H-imidazol-2-yl)-6-(1-methyl-1H-pyrazol-3-yl)pyrrolo[2,1-f][1,2,4]triazin-4-amine] | D* (85-100% activation) | 0 (0 = 0% inhibition)
Cc1c(-c2ccn(C)n2)cn2nc(-c3nccn3C)nc(Nc3cc(-c4cccnc4)ccn3)c12 [Compound 250, N-([3,4′-Bipyridin]-2′-yl)-5-methyl-2-(1-methyl-1H-imidazol-2-yl)-6-(1-methyl-1H-pyrazol-3-yl)pyrrolo[2,1-f][1,2,4]triazin-4-amine] | C* (46-84% activation) | C* (C* = 46-75% activation)
Cc1c(-c2ccn(C)n2)cn2nc(-c3nccn3C)nc(N3CCc4cc(C(F)(F)F)cnc43)c12 [Compound 251, 5-Methyl-2-(1-methyl-1H-imidazol-2-yl)-6-(1-methyl-1H-pyrazol-3-yl)-4-(5-(trifluoromethyl)-2,3-dihydro-1H-pyrrolo[2,3-b]pyridin-1-yl)pyrrolo[2,1-f][1,2,4]triazine] | B (26-49% inhibition) | A* (A* = 1-25% activation)
COc1cc(Nc2nc(-c3nccn3C)nn3cc(-c4ccn(C)n4)c(C)c23)n[nH]1 [Compound 252, N-(5-Methoxy-1H-pyrazol-3-yl)-5-methyl-2-(1-methyl-1H-imidazol-2-yl)-6-(1-methyl-1H-pyrazol-3-yl)pyrrolo[2,1-f][1,2,4]triazin-4-amine] | A* (1-25% activation) | B* (B* = 26-45% activation)
COc1cc(Nc2nc(-c3nccn3C)nn3cc(-c4ccn(C)n4)c(C)c23)nn1C [Compound 253, N-(5-Methoxy-1-methyl-1H-pyrazol-3-yl)-5-methyl-2-(1-methyl-1H-imidazol-2-yl)-6-(1-methyl-1H-pyrazol-3-yl)pyrrolo[2,1-f][1,2,4]triazin-4-amine] | C* (46-84% activation) | A* (A* = 1-25% activation)
Cc1c(-c2ccn(C)n2)cn2nc(-c3nccn3C)nc(Nc3cc(OC(F)F)n(C)n3)c12 [Compound 254, N-(5-(Difluoromethoxy)-1-methyl-1H-pyrazol-3-yl)-5-methyl-2-(1-methyl-1H-imidazol-2-yl)-6-(1-methyl-1H-pyrazol-3-yl)pyrrolo[2,1-f][1,2,4]triazin-4-amine] | D* (85-100% activation) | B* (B* = 26-45% activation)
Cc1cc(Nc2nc(-c3nccn3C)nn3cc(-c4ccn(C)n4)c(C)c23)n[nH]1 [Compound 255, 5-Methyl-2-(1-methyl-1H-imidazol-2-yl)-6-(1-methyl-1H-pyrazol-3-yl)-N-(5-methyl-1H-pyrazol-3-yl)pyrrolo[2,1-f][1,2,4]triazin-4-amine] | A (1-25% inhibition) | D* (D* = 76-100% activation)
Cc1c(-c2ccn(C)n2)cn2nc(-c3nccn3C)nc(Nc3cc[nH]n3)c12 [Compound 256, 5-Methyl-2-(1-methyl-1H-imidazol-2-yl)-6-(1-methyl-1H-pyrazol-3-yl)-N-(1H-pyrazol-3-yl)pyrrolo[2,1-f][1,2,4]triazin-4-amine] | C (50-84% inhibition) | D* (D* = 76-100% activation)
Cc1c(-c2ccn(C)n2)cn2nc(-c3nccn3C)nc(Nc3cc(C4CCC4)[nH]n3)c12 [Compound 257, N-(5-Cyclobutyl-1H-pyrazol-3-yl)-5-methyl-2-(1-methyl-1H-imidazol-2-yl)-6-(1-methyl-1H-pyrazol-3-yl)pyrrolo[2,1-f][1,2,4]triazin-4-amine] | C* (46-84% activation) | D* (D* = 76-100% activation)
Cc1c(-c2ccn(C)n2)cn2nc(-c3nccn3C)nc(Nc3cc(C(F)F)[nH]n3)c12 [Compound 258, N-(5-(Difluoromethyl)-1H-pyrazol-3-yl)-5-methyl-2-(1-methyl-1H-imidazol-2-yl)-6-(1-methyl-1H-pyrazol-3-yl)pyrrolo[2,1-f][1,2,4]triazin-4-amine] | A* (1-25% activation) | A* (A* = 1-25% activation)
Cc1c(-c2ccn(C)n2)cn2nc(-c3nccn3C)nc(Nc3cc(C(F)(F)F)[nH]n3)c12 [Compound 259, 5-Methyl-2-(1-methyl-1H-imidazol-2-yl)-6-(1-methyl-1H-pyrazol-3-yl)-N-(5-(trifluoromethyl)-1H-pyrazol-3-yl)pyrrolo[2,1-f][1,2,4]triazin-4-amine] | A* (1-25% activation) | A (A = 1-25% inhibition)
